Literature values as cited in patent US20210128641A1, “COMPOSITIONS AND METHODS FOR TREATING SKIN AND MUCOUS MEMBRANE DISEASES” (The Regents of the University of California, priority 2014, published 2021).

Columns and labels:
Propionibacterium acnes = details: in vitro
keratinocytes = details: in vitro

Row | Substance | growth of Propionibacterium acnes on agar plates (Propionibacterium acnes) | death of keratinocytes caused by Staphylococcus aureus (keratinocytes)
1 | Lactobacillus acidophilus | inhibit growth | 
2 | Lactobacillus plantarum | inhibit growth | 
3 | Lactobacillus reuteri |  | reduced death
